Measured values from patent publication US7008905B2, “Method of combating undesired plant growth on cereals” (BASF Aktiengesellschaft, priority 2000, dated 2006).

Tests used:
Assay type in all cases: in vivo
[1] = tested on: Triticum aestivum variety “Monopol”; assay: Post-emergence test, selectivity; details: 2–4 weeks after treatment, rating 0-100 (100=death), Table 6
Experimental: (§1) These acetone solutions are diluted with water and the resulting formulations applied at dosage levels equivalent of about 0.030 to 0.240 kg per hectare of test compound per pot. After spraying the plants are placed an greenhouse benches and are cared for in the usual manner, commensurate with conventional greenhouse practices. From 2 to 4 weeks after treatment, the seedling plants are examined and rated according to the rating system provided above. A rating 0 indicates growth as untreated control, a rating 100 indicates death.

[2] = tested on: Triticum aestivum variety “Kanzler”; assay: Post-emergence test, selectivity; details: 2–4 weeks after treatment, rating 0-100 (100=death), Table 6
Experimental: as §1

[3] = tested on: Polygonum convolvulus; assay: Post-emergence test, weed control; details: 2–4 weeks after treatment, rating 0-100 (100=death), Table 5
Experimental: as §1

[4] = tested on: Matricaria inodora; assay: Post-emergence test, weed control; details: 2–4 weeks after treatment, rating 0-100 (100=death), Table 5
Experimental: as §1

[5] = tested on: HORVW; assay: Pre-emergence test, selectivity; details: 3 weeks after treatment, rating 0-100 (100=death), Table 2
Experimental: (§2) The pre-emergence tests involve spraying a liquid formulation of the compound onto the soil in which the seeds of the plant species mentioned above has recently been sown.
(§3) The soil used in the tests is a prepared horticultural loam. The formulations used in the tests are prepared from solutions of the test compounds in acetone containing 0.4% by weight of an alkylphenol/ethylene oxide condensate available under the trade mark TRITON X-155.
(§4) These acetone solutions are diluted with water and the resulting formulations applied at dosage levels corresponding to 15 g, 30 g, 60 g, 120 g or 240 g of active material per hectare in a volume equivalent to 900 liters per hectare. In these tests untreated sown soil is used as control. The herbicidal effects of the test compounds are assessed visually three weeks after spraying the soil and are recorded an a 0 to 100 scale. A rating 0 indicates growth as untreated control, a rating 100 indicates death. An increase of 10 unit an the linear scale approximates to a 10% increase in the level of effect. The results of the assessment are set out in Tables 1 to 4.

[6] = tested on: Hordeum vulgare variety “Mammut”; assay: Pre-emergence test, selectivity; details: 3 weeks after treatment, rating 0-100 (100=death), Table 2
Experimental: as §2, §3, §4

[7] = tested on: Triticum aestivum variety “Monopol”; assay: Pre-emergence test, selectivity; details: 3 weeks after treatment, rating 0-100 (100=death), Table 2
Experimental: as §2, §3, §4

[8] = tested on: Triticum aestivum variety “Kanzler”; assay: Pre-emergence test, selectivity; details: 3 weeks after treatment, rating 0-100 (100=death), Table 2
Experimental: as §2, §3, §4

[9] = tested on: Poa annua; assay: Pre-emergence test, weed control; details: 3 weeks after treatment, rating 0-100 (100=death), Table 1
Experimental: as §2, §3
(§5) In these tests untreated sown soil is used as control. The herbicidal effects of the test compounds are assessed visually three weeks after spraying the soil and are recorded an a 0 to 100 scale. A rating 0 indicates growth as untreated control, a rating 100 indicates death. An increase of 10 unit an the linear scale approximates to a 10% increase in the level of effect. The results of the assessment are set out in Tables 1 to 4.

[10] = tested on: Stellaria media; assay: Pre-emergence test, weed control; details: 3 weeks after treatment, rating 0-100 (100=death), Table 1
Experimental: as §2, §3, §5

[11] = tested on: Alopecurus myosuroides; assay: Pre-emergence test, weed control; details: 3 weeks after treatment, rating 0-100 (100=death), Table 1
Experimental: as §2, §3, §5

[12] = tested on: Setaria viridis; assay: Pre-emergence test, weed control; details: 3 weeks after treatment, rating 0-100 (100=death), Table 1
Experimental: as §2, §3, §5

[13] = tested on: Polygonum convolvulus; assay: Pre-emergence test, weed control; details: 3 weeks after treatment, rating 0-100 (100=death), Table 1
Experimental: as §2, §3, §5

[14] = tested on: Apera spica-venti; assay: Pre-emergence test, weed control; details: 3 weeks after treatment, rating 0-100 (100=death), Table 1
Experimental: as §2, §3, §5

[15] = tested on: Lamium purpureum; assay: Pre-emergence test, weed control; details: 3 weeks after treatment, rating 0-100 (100=death), Table 1
Experimental: as §2, §3, §5

[16] = tested on: Lolium perenne; assay: Pre-emergence test, weed control; details: 3 weeks after treatment, rating 0-100 (100=death), Table 1
Experimental: as §2, §3, §5

[17] = tested on: Galium aparine; assay: Pre-emergence test, weed control; details: 3 weeks after treatment, rating 0-100 (100=death), Table 1
Experimental: as §2, §3, §5

[18] = tested on: Veronica persica; assay: Pre-emergence test, weed control; details: 3 weeks after treatment, rating 0-100 (100=death), Table 1
Experimental: as §2, §3, §5

[19] = tested on: Matricaria inodora; assay: Pre-emergence test, weed control; details: 3 weeks after treatment, rating 0-100 (100=death), Table 1
Experimental: as §2, §3, §5

Cc1nc(-c2ccc(C(F)(F)F)cc2)nc(Oc2cccc(C(F)(F)F)c2)c1C [REF-2]
TRZAWM rating (Selectivity) ([1]; 0.03 kg/ha): 2
TRZAWM rating (Selectivity) ([1]; 0.06 kg/ha): 5
TRZAWM rating (Selectivity) ([1]; 0.12 kg/ha): 8
TRZAWM rating (Selectivity) ([1]; 0.24 kg/ha): 8
TRZAWK rating (Selectivity) ([2]; 0.03 kg/ha): 3
TRZAWK rating (Selectivity) ([2]; 0.06 kg/ha): 5
TRZAWK rating (Selectivity) ([2]; 0.12 kg/ha): 8
TRZAWK rating (Selectivity) ([2]; 0.24 kg/ha): 10
POLCO weed control rating ([3]; 0.060 kg/ha): 0
POLCO weed control rating ([3]; 0.120 kg/ha): 25
POLCO weed control rating ([3]; 0.240 kg/ha): 40
MATIN weed control rating ([4]; 0.030 kg/ha): 35
MATIN weed control rating ([4]; 0.060 kg/ha): 45
MATIN weed control rating ([4]; 0.120 kg/ha): 55
MATIN weed control rating ([4]; 0.240 kg/ha): 60
HORVW rating (Selectivity) ([5]; 0.030 kg/ha): 10
HORVW rating (Selectivity) ([5]; 0.060 kg/ha): 10
HORVW rating (Selectivity) ([5]; 0.120 kg/ha): 20
HORVW rating (Selectivity) ([5]; 0.240 kg/ha): 30
HORVWM rating (Selectivity) ([6]; 0.030 kg/ha): 3
HORVWM rating (Selectivity) ([6]; 0.060 kg/ha): 5
HORVWM rating (Selectivity) ([6]; 0.120 kg/ha): 18
HORVWM rating (Selectivity) ([6]; 0.240 kg/ha): 25
TRZAWM rating (Selectivity) ([7]; 0.030 kg/ha): 1
TRZAWM rating (Selectivity) ([7]; 0.060 kg/ha): 1
TRZAWM rating (Selectivity) ([7]; 0.120 kg/ha): 2
TRZAWM rating (Selectivity) ([7]; 0.240 kg/ha): 5
TRZAWK rating (Selectivity) ([8]; 0.030 kg/ha): 1
TRZAWK rating (Selectivity) ([8]; 0.060 kg/ha): 1
TRZAWK rating (Selectivity) ([8]; 0.120 kg/ha): 1
TRZAWK rating (Selectivity) ([8]; 0.240 kg/ha): 5
POAAN weed control rating ([9]; 0.015 kg/ha): 65
POAAN weed control rating ([9]; 0.030 kg/ha): 95
POAAN weed control rating ([9]; 0.060 kg/ha): 97
POAAN weed control rating ([9]; 0.120 kg/ha): 100
POAAN weed control rating ([9]; 0.240 kg/ha): 100
STEME weed control rating ([10]; 0.015 kg/ha): 0
STEME weed control rating ([10]; 0.060 kg/ha): 20
STEME weed control rating ([10]; 0.120 kg/ha): 97
STEME weed control rating ([10]; 0.240 kg/ha): 100
ALOMY weed control rating ([11]; 0.015 kg/ha): 0
ALOMY weed control rating ([11]; 0.030 kg/ha): 5
ALOMY weed control rating ([11]; 0.060 kg/ha): 15
ALOMY weed control rating ([11]; 0.120 kg/ha): 65
ALOMY weed control rating ([11]; 0.240 kg/ha): 70
SETVI weed control rating ([12]; 0.015 kg/ha): 65
SETVI weed control rating ([12]; 0.060 kg/ha): 97
SETVI weed control rating ([12]; 0.120 kg/ha): 100
SETVI weed control rating ([12]; 0.240 kg/ha): 100
POLCO weed control rating ([13]; 0.015 kg/ha): 0
POLCO weed control rating ([13]; 0.030 kg/ha): 0
POLCO weed control rating ([13]; 0.060 kg/ha): 0
POLCO weed control rating ([13]; 0.120 kg/ha): 30
POLCO weed control rating ([13]; 0.240 kg/ha): 80
APESV weed control rating ([14]; 0.015 kg/ha): 80
APESV weed control rating ([14]; 0.030 kg/ha): 85
APESV weed control rating ([14]; 0.060 kg/ha): 98
APESV weed control rating ([14]; 0.120 kg/ha): 100
APESV weed control rating ([14]; 0.240 kg/ha): 100
LAMPU weed control rating ([15]; 0.030 kg/ha): 40
LAMPU weed control rating ([15]; 0.060 kg/ha): 75
LAMPU weed control rating ([15]; 0.120 kg/ha): 98
LAMPU weed control rating ([15]; 0.240 kg/ha): 100
LOLPE weed control rating ([16]; 0.015 kg/ha): 5
LOLPE weed control rating ([16]; 0.030 kg/ha): 30
LOLPE weed control rating ([16]; 0.060 kg/ha): 60
LOLPE weed control rating ([16]; 0.120 kg/ha): 93
LOLPE weed control rating ([16]; 0.240 kg/ha): 97
GALAP weed control rating ([17]; 0.015 kg/ha): 0
GALAP weed control rating ([17]; 0.030 kg/ha): 0
GALAP weed control rating ([17]; 0.060 kg/ha): 3
GALAP weed control rating ([17]; 0.120 kg/ha): 5
GALAP weed control rating ([17]; 0.240 kg/ha): 50
VERPE weed control rating ([18]; 0.015 kg/ha): 25
VERPE weed control rating ([18]; 0.030 kg/ha): 99
VERPE weed control rating ([18]; 0.060 kg/ha): 100
VERPE weed control rating ([18]; 0.120 kg/ha): 100
VERPE weed control rating ([18]; 0.240 kg/ha): 100
MATIN weed control rating ([19]; 0.015 kg/ha): 95
MATIN weed control rating ([19]; 0.030 kg/ha): 98
MATIN weed control rating ([19]; 0.060 kg/ha): 98
MATIN weed control rating ([19]; 0.120 kg/ha): 99
MATIN weed control rating ([19]; 0.240 kg/ha): 99
